# Data as given in patent US7727960B2, “C5a receptor antagonists” (Jerini AG, priority 2003, dated 2010).
# Non-standard residues stand in square brackets, D forms with d. Residues, ends and D or L forms follow the SMILES beside them. Bta = N[C@@H](Cc1csc2ccccc12)C(=O)O; d(hLeu) = CC(C)CC[C@@H](N)C(=O)O; Orn = NCCC[C@H](N)C(=O)O
# Columns and labels:
# Female Wistar rats = experiment: Model of C5a induced neutropenia; assay type: in vivo; conditions: i.v. infusion 10 min before 2 μg/kg hrC5a i.v., FIG. 2
# Source text: C5a induced neutropenia is a model for shock induced diseases (e.g. septic shock), where the systemic role of C5a such as neutropenia, blood pressure decrease, plays an important role. The reason for the decrease of the neutrophils in the circulation is their C5a triggered binding to the vessel walls. This process of neutrophil recruitment is also playing an important role in many other diseases like reperfusion injury. This model was also described by Short et al. (1999 British Journal of Pharmacology 125: 551-554).
# Female Wistar rats were anaesthetized i.p. with ketamine (80 mg/kg) and xylazine (12 mg/kg). A catheter was introduced into the jugular veine and the animals were subjected to the following procedure: • 1. Rats were pre-treated with vehicle or compound 149 which is a compound according to the invention, via i.v. infusion. A blood sample was taken one minute prior to that. • 2. 10 min after compound infusion the rats were treated with 2 μg/kg hrC5a i.v. (2 μg/kg over 1 min)
# Blood samples are taken shortly before and at various times after hrC5a administration. • 3. […]
# White blood cell count was measured with a haematology-cell-counter. […]
# The differential cell count is determined as the sum of neutrophils, eosinophils, basophils, lymphocytes and monocytes of 100 cells. Then the percentage of the neutrophils in relation to all white blood cells is calculated.
# human C5aR (CD88) [1] = biological target: T1, human C5aR (CD88) (Homo sapiens, UniProt P21730); experiment: Determination of the IC50 value in an enzyme release assay (functional assay, antagonistic activity); assay type: cell-based
# T1 construct: expressed in transfected cells; host or cells: rat basophilic leukemia cells (RBL)
# T1 sequence (P21730 1-350): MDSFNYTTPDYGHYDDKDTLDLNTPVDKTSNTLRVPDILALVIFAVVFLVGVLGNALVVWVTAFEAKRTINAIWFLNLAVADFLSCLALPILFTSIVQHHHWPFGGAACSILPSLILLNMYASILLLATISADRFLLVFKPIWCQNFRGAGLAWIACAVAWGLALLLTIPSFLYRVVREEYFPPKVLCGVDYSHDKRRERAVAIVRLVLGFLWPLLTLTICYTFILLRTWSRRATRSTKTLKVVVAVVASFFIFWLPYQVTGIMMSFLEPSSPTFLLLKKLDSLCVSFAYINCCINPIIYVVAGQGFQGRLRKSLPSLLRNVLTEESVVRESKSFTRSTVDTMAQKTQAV
# BALB/c mice = experiment: Model of immune complex mediated peritonitis (reverse passive Arthus reaction); assay type: in vivo; conditions: 1 mg/kg i.v. 15 min before Arthus reaction, lavage after 6 h, FIG. 1
# Method: Immune complex mediated peritonitis is part of the pathological conditions of immune complex related diseases such as vasculitis, nephritis, arthritis, and farmer's disease. The corresponding animal model was described by Heller et al. (1999 Journal of Immunology 163: 985-994) and takes advantage of the pro-inflammatory effect of immune complexes formation from i.v. administration of the antigen and i.p. administration of the antibody.
# BALB/c mice (6-8 weeks old) were treated i.v. with the compound 149 (1 mg/kg body weight in 200 μl vehicle) which is one in accordance with the present invention, 15 min before the initiation of the reverse passive Arthus reaction. Arthus reaction was induced by the administration of OVA (20 mg/kg i.v. in 200 μl PBS) and polyclonal anti-OVA Ab (rabbit; 800 μg/Maus i.p). After 6 h a peritoenal lavage with 2 ml PBS 0.1% BSA was done. The collected PE-cells were stained with DIFF-Quick. At least 20 visual fields (100× magnification) were analysed for the presence of neutrophils.
# human C5aR (CD88) [2] = biological target: T1, human C5aR (CD88); experiment: Determination of EC50 values in an enzyme release assay (agonistic activity, no C5a added); assay type: cell-based; conditions: cellular assay, up to a concentration of at least 1430 nM
# Method: The determination of the EC50 value was performed in a way similar to the procedure described in example 11, with the only exception that 30 μl of the compound to be tested were mixed with 75 μl of the cell suspension described in example 11. There was no preincubation or addition of C5a for stimulation of the enzyme release.
structure (smiles),measurement,setting,value
"CC(=O)N[C@@H](Cc1ccccc1)C(=O)N[C@@H](CCCN)C(=O)N1CCC[C@H]1C(=O)N[C@H](CCC(C)C)C(=O)N[C@@H](Cc1csc2ccccc12)C(=O)N[C@@H](Cc1ccccc1)C(N)=O [Compound 149, Ac-Phe-Orn-Pro-hle-Bta-Phe-NH2] (Ac-F[Orn]P[d(hLeu)][Bta]F-NH2)",C5a-induced neutropenia,Female Wistar rats,reduces significantly C5a-induced neutropenia
same,inhibitory activity (in words),human C5aR (CD88) [1],noteworthy inhibitory activity
same,influx of pro-inflammatory cells (neutrophils) into the peritoneum,BALB/c mice,reduction of the influx of pro-inflammatory cells into the peritoneum
same,agonistic activity (in words),human C5aR (CD88) [2],pure antagonists
